Measured values taken from patent US10882854B2, “Heterocyclic compounds and use thereof” (National Health Research Institutes, priority 2017, dated 2021).
“Also recorded” adds a separate entry of the source.

Tests used:
HCC cell line HCA-1 = test: Syngeneic orthotopic hepatocellular carcinoma (HCC) mouse model; format: in vivo, C3H mice; details: for tumor size: C3H mice with orthotopic HCA-1, 10 mg/kg/day by osmotic pump for two weeks, combined with sorafenib 40 mg/kg daily, control about 400 mm^3
Experimental: The efficacy of a compound of Formula (I), i.e., Compounds 42, in treating HCC was assessed using a syngeneic mouse model as follows.
C3H mouse-derived HCC cell line HCA-1 was used. HCA-1 cells were orthotopically implanted in C3H mice for 10 days. The mice were subsequently treated with sorafenib (a small molecule drug for treating hepatocellular carcinoma; 40 mg/kg) daily for two weeks or treated with vehicle (PBS) alone as a control. Tested compounds, e.g., AMD3100 (10 mg/kg/day) and Compound 42 (10 mg/kg/day), were each administered continuously to those mice treated with sorafenib using an Alzet osmotic pump (DURECT Corporation, Cupertino, Calif.) for two weeks.

human CXCR4 = molecular target: T1, human CXCR4 (Homo sapiens, UniProt P61073); test: Inhibition of 125I-CXCL12 radioligand binding, membranes of human CXCR4-transfected HEK293 cells; details: 0.16 nM 125I-CXCL12, 60 min at 30 °C, read-out: concentration required to inhibit binding of 125I-CXCL12 to CXCR4 by 50% (IC50)
T1 construct: expressed in transfected cells; host or cells: HEK293 cells (membranes)
T1 sequence (P61073 whole entry): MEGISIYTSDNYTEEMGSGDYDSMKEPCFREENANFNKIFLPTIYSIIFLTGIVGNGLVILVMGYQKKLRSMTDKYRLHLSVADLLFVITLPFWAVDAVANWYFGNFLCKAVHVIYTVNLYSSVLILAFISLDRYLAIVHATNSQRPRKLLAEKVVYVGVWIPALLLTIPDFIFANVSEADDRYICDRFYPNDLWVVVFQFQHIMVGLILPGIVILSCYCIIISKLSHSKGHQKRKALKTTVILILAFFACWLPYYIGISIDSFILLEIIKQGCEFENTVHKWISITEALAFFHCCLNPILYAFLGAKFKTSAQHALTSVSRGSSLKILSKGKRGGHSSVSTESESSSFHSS
Experimental: Binding competition between the compounds of Formula (I) and human CXCL12 was assessed using a radioligand binding assay as described below.
Membranes (2-4 μg) prepared from human CXCR4-transfected HEK293 cells in 40 μL of assay buffer (50 mM HEPES-NaOH, pH 7.4, 100 mM NaCl, 5 mM MgCl2, 1 mM CaCl2, 0.5% bovine serum albumin) were incubated with 20 μL of radio-labeled ^125I-CXCL12 (0.16 nM) and 20 μL of a test compound in an assay plate (Costar Corning, Cambridge, Mass.). After 60 minutes at 30° C., the incubation was terminated by transferring the resulting reaction mixture to a 96-well GF/B filter plate (Millipore Corp., Billerica, Mass.) and filtered via a manifold. The plate was washed with 100 μL of ice-cold wash buffer (50 mM HEPES-NaOH, pH 7.4, 100 mM NaCl) four times. The radioactivity bound to the filter was measured by Topcount (PerkinElmer Inc., Waltham, Mass.).

[1] = test system: acute Kidney Injury (AKI) model; test: Ischemia-reperfusion acute kidney injury (AKI) model in rats; format: in vivo, male Sprague-Dawley rats; details: 6 mg/Kg subcutaneous 40 min before AKI, blood 24 h after induction of AKI
Experimental: The efficacy of five compounds of Formula (I) in treating Ischemia-Reperfusion injury was assessed using both an acute kidney injury model, an ischemic stroke model, and a limb ischemia model. These five compounds are Compounds 13, 35, 40, 45, and 46. In an acute Kidney Injury (AKI) model, each of the five compounds was dissolved in saline to form a solution. The solution was administered to male Sprague-Dawley rats (National Laboratory Animal Center, Taipei, Taiwan) subcutaneously at a dosage of 6 mg/Kg. 40 minutes after the subcutaneous injection, AKI was induced in the rats by clamping their bilateral renal vein and artery for one hour followed by releasing the vessel clips to allow 24-h reperfusion. Whole blood was collected at 24-h after induction of AKI. Blood urea nitrogen (BUN) and serum creatinine (Scr), two markers that increase upon kidney injury, were measured using a FUJI DRI-CHEM 3500s analyzer (Fujifilm, Tokyo, Japan). Non-AKI rats and AKI rats treated with saline were used as controls.

[2] = test system: T-cell acute lymphoblastic leukemia (CCRF-CEM) cells; test: Inhibition of CXCL12-induced chemotaxis in lymphoblastic leukemia cells; format: cell-based; details: Homo sapiens, CXCL12 10 nM, 2.5 h at 37 °C, read-out: concentration required to inhibit chemotaxis by 50% (EC50)
Experimental: The response of cancer cells to compounds of Formula (I) was evaluated using the chemotaxis assay as set forth below.
T-cell acute lymphoblastic leukemia (CCRF-CEM) cells in Roswell Park Memorial Institute medium (RPMI) 1640 supplemented with 10% […] were incubated with 250 μL of a test compound. The assay was performed using Millicell Hanging Cell Culture Inserts (pore size 5 μm; 24-well plate; Millipore, Bedford, Mass., USA). After 10 minutes at 37° C., 250 μL of cells pre-incubated with a test compound were plated per well in the upper chambers of the inserts at a density of 2.5×10^5 cells/well. 300 μL/well medium containing CXCL12 (10 nM) and a test compound were plated in the lower chamber of the insert. After 2.5 h at 37° C., cells in both chambers of inserts were measured by flow cytometry (Guava Technologies, Hayward, Calif., USA).

[3] = test system: Hematopoietic stem cells (CD34+) and endothelial progenitor cells (CD133+); test: Mobilization of stem/progenitor cells into peripheral blood in mice; format: in vivo, C57BL/6 male mice
[4] = test system: rat ischemic myocardial infarction model; test: Rat ischemic myocardial infarction model; format: in vivo, Male SD rats; details: SD rats; 5 mg/kg single subcutaneous injection 30 minutes before LAD ligation; 24 hours; versus saline
Experimental: The efficacy of a compound of Formula (I), i.e., Compound 42, in protecting against myocardial infarction was assessed in a rat ischemic myocardial infarction model as follows.
Male SD rats (400-500 gram each) received a single subcutaneous injection of Compound 42 at a dosage of 5 mg/kg or an equal volume of saline (n=18-20 per group) 30 minutes before surgery was conducted. Left anterior descending artery (LAD) was transiently ligated using a 6-0 nylon suture for a 30-minute ischemic period in this surgery. After 24 hours, each rat was anesthetized and the LAD was ligated again. 2 mL of 5% Evan's Blue was then injected into the tail vein and allowed to perfuse for 2 minutes. The heart was immediately excised, washed with saline, froze at −80° C., and cut in semi-frozen state into 2-mm thick sections. Slices were then incubated in 1% tri-phenyltetrazolium chloride solution for 10 minutes at 37° C. and fixed in 10% formalin. Infarct size was recorded after staining.

[5] = test system: mild traumatic brain injury (mTBI) model; test: Mild traumatic brain injury (mTBI) model in mice; format: in vivo, Adult CD1 mice; details: CD1 mice, versus vehicle

Structure (SMILES)	IC50 (human CXCR4)	EC50 [2]	other results
c1cc(CN2CCCNCCNCCCNCC2)ccc1CN1CCCNCCNCCCNCC1 [AMD3100, reference compound]			tumor size (HCC cell line HCA-1): about 250 mm^3
c1ccc2c(NC3CCNCC3)nc(NCc3nnn(CCCNCCCNC4CCCCC4)n3)nc2c1 [Compound 13]	< 50 nM	< 50 nM	BUN level relative to that induced in saline-treated AKI rats [1]: 25%; Scr (serum creatinine) level relative to that induced in saline-treated AKI rats [1]: 56%
CCc1cc(NC2CCNCC2)nc(NCc2nnn(CCCNCCCNC3CCCCC3)n2)n1 [Compound 26]	50 to 100 nM	< 50 nM	
N[C@@H](CCC(=O)N1CCC(Nc2nc(NCc3cc(CCCNCCCNC4CCCCC4)on3)nc3ccccc23)CC1)C(=O)O [Compound 29]	< 50 nM	< 50 nM	
N[C@@H](CCC(=O)N1CCC(Nc2nc(NCc3coc(CCCNCCCNC4CCCCC4)n3)nc3ccccc23)CC1)C(=O)O [Compound 30]	< 50 nM	< 50 nM	
N[C@@H](CCC(=O)N1CCC(Nc2nc(NCc3nc(CCCNCCCNC4CCCCC4)cs3)nc3ccccc23)CC1)C(=O)O [Compound 31]	50 to 100 nM	< 50 nM	
N[C@@H](CCC(=O)N1CCC(Nc2nc(NCc3nc(CCCNCCCNC4CCCCC4)co3)nc3ccccc23)CC1)C(=O)O [Compound 32]	50 to 100 nM	< 50 nM	
N[C@@H](CCC(=O)N1CCC(Nc2nc(NCc3noc(CCCNCCCNC4CCCCC4)n3)nc3ccccc23)CC1)C(=O)O [Compound 33]	50 to 100 nM	50 to 150 nM	
N[C@@H](CCC(=O)N1CCC(Nc2nc(NCc3nnc(CCCNCCCNC4CCCCC4)o3)nc3ccccc23)CC1)C(=O)O [Compound 34]	50 to 100 nM	50 to 150 nM	
N[C@@H](CCC(=O)N1CCC(Nc2nc(NCc3nnc(CCCNCCCNC4CCCCC4)s3)nc3ccccc23)CC1)C(=O)O [Compound 35]	50 to 100 nM	< 50 nM	BUN level relative to that induced in saline-treated AKI rats [1]: 15%; Scr (serum creatinine) level relative to that induced in saline-treated AKI rats [1]: 22%
Cc1cc(NC2CCN(C(=O)CCNCC(=O)O)CC2)nc(NCc2nc(CCCNCCCNC3CCCCC3)co2)n1 [Compound 42]	< 50 nM	< 50 nM	body weight loss (HCC cell line HCA-1; C3H mice with HCA-1 tumors, 10 mg/kg/day for two weeks): no significant body weight loss; tumor size (HCC cell line HCA-1): about 50 mm^3; protection of heart against ischemic damage (infarct size) [4]: protected heart against ischemic damage to a large degree; vertical activity and vertical movement time in mTBI mice ([5]; 3 mg/kg, 24 hours starting 15-minute after injury): significantly improved vertical activity; expression of inflammatory marker IBA1 in the lesioned cortex (qRTPCR) ([5]; 3 mg/kg, cortex collected day 5 after mTBI, 3 mg/kg): significantly reduced IBA1 expression; also recorded: significantly suppressed; locomotor activity after mTBI ([5]; early post-treatment given systemically after mTBI): significantly improved locomotor activity
N[C@@H](CCC(=O)NCCN1CCC(Nc2nc(NCc3coc(CCCNCCCNC4CCCCC4)n3)nc3ccccc23)CC1)C(=O)NCCP(=O)(O)O [Compound 48]	50 to 100 nM	< 50 nM	

Now from value to compound, other results behind:

IC50 (human CXCR4)	EC50 [2]	Structure (SMILES)	other results
50 to 100 nM	< 50 nM	N[C@@H](CCC(=O)N1CCC(Nc2nc(NCc3nnn(CCCNCCCNC4CCCCC4)n3)nc3ccccc23)CC1)C(=O)O [Compound 37]	
50 to 100 nM	< 50 nM	N[C@@H](CCC(=O)N1CCC(Nc2nc(NCc3nnc(CCCNCCCNC4CCCCC4)[nH]3)nc3ccccc23)CC1)C(=O)O [Compound 38]	
50 to 100 nM	< 50 nM	Cc1cc(NC2CCN(C(=O)CCNCC(=O)O)CC2)nc(NCc2cc(CCCNCCCNC3CCCCC3)on2)n1 [Compound 39]	
< 50 nM	< 50 nM	Cc1cc(NC2CCN(C(=O)CCNCC(=O)O)CC2)nc(NCc2coc(CCCNCCCNC3CCCCC3)n2)n1 [Compound 40]	hematopoietic stem cell mobilization combined with G-CSF (CFU-GM numbers) [3]: mobilize hematopoietic stem cells synergistically; BUN level relative to that induced in saline-treated AKI rats [1]: 20%; Scr (serum creatinine) level relative to that induced in saline-treated AKI rats [1]: 36%
100 to 1000 nM	< 50 nM	Cc1cc(NC2CCN(C(=O)CCNCC(=O)O)CC2)nc(NCc2nc(CCCNCCCNC3CCCCC3)cs2)n1 [Compound 41]	
50 to 100 nM	< 50 nM	Cc1cc(NC2CCN(C(=O)CCNCC(=O)O)CC2)nc(NCc2nnc(CCCNCCCNC3CCCCC3)s2)n1 [Compound 45]	hematopoietic stem cell mobilization combined with G-CSF (CFU-GM numbers) [3]: mobilize hematopoietic stem cells synergistically; BUN level relative to that induced in saline-treated AKI rats [1]: 11%; Scr (serum creatinine) level relative to that induced in saline-treated AKI rats [1]: 10%
50 to 100 nM	50 to 150 nM	Cc1cc(NC2CCN(C(=O)CCNCC(=O)O)CC2)nc(NCc2nnn(CCCNCCCNC3CCCCC3)n2)n1 [Compound 46]	BUN level relative to that induced in saline-treated AKI rats [1]: 22%; Scr (serum creatinine) level relative to that induced in saline-treated AKI rats [1]: 22%
50 to 100 nM	< 50 nM	N[C@@H](CCC(=O)NCCN1CCC(Nc2nc(NCc3cc(CCCNCCCNC4CCCCC4)on3)nc3ccccc23)CC1)C(=O)NCCP(=O)(O)O [Compound 47]	
50 to 100 nM	< 50 nM	N[C@@H](CCC(=O)NCCN1CCC(Nc2nc(NCc3nc(CCCNCCCNC4CCCCC4)cs3)nc3ccccc23)CC1)C(=O)NCCP(=O)(O)O [Compound 49]	hematopoietic stem cell mobilization combined with G-CSF (CFU-GM numbers) [3]: mobilize hematopoietic stem cells synergistically
50 to 100 nM	50 to 150 nM	N[C@@H](CCC(=O)NCCN1CCC(Nc2nc(NCc3nc(CCCNCCCNC4CCCCC4)co3)nc3ccccc23)CC1)C(=O)NCCP(=O)(O)O [Compound 50]	hematopoietic stem cell mobilization combined with G-CSF (CFU-GM numbers) [3]: mobilize hematopoietic stem cells synergistically
< 50 nM	< 50 nM	O=C(O)CNCCCC(=O)N1CCC(Nc2nc(NCc3nnn(CCCNCCCNC4CCCCC4)n3)nc3ccccc23)CC1 [Compound 59]	
50 to 100 nM	< 50 nM	O=C(O)CNCCC(=O)N1CCC(Nc2nc(NCc3nnn(CCCNCCCNC4CCCCC4)n3)nc3ccccc23)CC1 [Compound 61]	
50 to 100 nM	< 50 nM	Cc1cc(NC2CCN(C(=O)CCCNCC(=O)O)CC2)nc(NCc2nnn(CCCNCCCNC3CCCCC3)n2)n1 [Compound 62]	
